PubChem BioAssay (NCI)
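Protocol summary: plate cells (96-well), add compound at 5 concentrations, incubate 48 h, interpolate endpoints linearly. GI50 = concentration required for 50% inhibition of growth. TGI marks complete inhibition of growth.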

Assays:
Assay in all cases: growth of human tumour cells (NCI), 48 h
RPMI-8226 leukemia = system: RPMI-8226 leukemia
MDA-MB-435 = system: MDA-MB-435
SK-MEL-28 melanoma = system: SK-MEL-28 melanoma
SN12C renal = system: SN12C renal
A498 renal = system: A498 renal
SK-MEL-2 melanoma = system: SK-MEL-2 melanoma
MALME-3M melanoma = system: MALME-3M melanoma
ACHN renal = system: ACHN renal
UACC-62 melanoma = system: UACC-62 melanoma
OVCAR-8 ovarian = system: OVCAR-8 ovarian
NCI-H460 lung = system: NCI-H460 lung
T-47D breast = system: T-47D breast
HL-60(TB) leukemia = system: HL-60(TB) leukemia
NCI-H226 lung = system: NCI-H226 lung
K-562 leukemia = system: K-562 leukemia
OVCAR-3 ovarian = system: OVCAR-3 ovarian
RXF 393 renal = system: RXF 393 renal
MDA-MB-231 breast = system: MDA-MB-231 breast
COLO 205 colon = system: COLO 205 colon
EKVX NSCLC = system: EKVX NSCLC
NCI-H23 lung = system: NCI-H23 lung
MCF7 breast = system: MCF7 breast
OVCAR-4 ovarian = system: OVCAR-4 ovarian
CCRF-CEM leukemia = system: CCRF-CEM leukemia
IGROV1 ovarian = system: IGROV1 ovarian
SK-MEL-5 melanoma = system: SK-MEL-5 melanoma
SNB-19 CNS = system: SNB-19 CNS
OVCAR-5 ovarian = system: OVCAR-5 ovarian
A549 NSCLC = system: A549 NSCLC
NCI/ADR-RES ovarian = system: NCI/ADR-RES ovarian
HOP-62 NSCLC = system: HOP-62 NSCLC
HOP-92 NSCLC = system: HOP-92 NSCLC
TK-10 renal = system: TK-10 renal
SF-295 CNS = system: SF-295 CNS
786-0 renal = system: 786-0 renal
CAKI-1 renal = system: CAKI-1 renal
NCI-H522 lung = system: NCI-H522 lung
HCT-15 colon = system: HCT-15 colon
PC-3 prostate = system: PC-3 prostate
HCC-2998 colon = system: HCC-2998 colon
SNB-75 CNS = system: SNB-75 CNS
UO-31 renal = system: UO-31 renal
UACC-257 melanoma = system: UACC-257 melanoma
SR leukemia = system: SR leukemia
KM12 colon = system: KM12 colon
LOX IMVI melanoma = system: LOX IMVI melanoma
MOLT-4 leukemia = system: MOLT-4 leukemia
BT-549 breast = system: BT-549 breast
DU-145 prostate = system: DU-145 prostate
HCT-116 colon = system: HCT-116 colon
SW-620 colon = system: SW-620 colon
HT29 colon = system: HT29 colon
SK-OV-3 ovarian = system: SK-OV-3 ovarian
SF-539 CNS = system: SF-539 CNS
HS 578T breast = system: HS 578T breast
M14 melanoma = system: M14 melanoma
SF-268 CNS = system: SF-268 CNS
U251 CNS = system: U251 CNS

Cc1cn2c(/C=C3\C(=O)N(C)c4ccc(O)cc43)c(C)nc2s1
GI50 (RPMI-8226 leukemia): 5.98 µM | TGI (RPMI-8226 leukemia): > 100 µM | GI50 (MDA-MB-435): 1.19 µM | TGI (MDA-MB-435): 3.92 µM | GI50 (SK-MEL-28 melanoma): 5.15 µM | TGI (SK-MEL-28 melanoma): > 100 µM | GI50 (SN12C renal): 18.3 µM | TGI (SN12C renal): > 100 µM | GI50 (A498 renal): 21.6 µM | TGI (A498 renal): 60.4 µM | GI50 (SK-MEL-2 melanoma): 3.33 µM | TGI (SK-MEL-2 melanoma): 18.4 µM | GI50 (MALME-3M melanoma): 8.58 µM | TGI (MALME-3M melanoma): > 100 µM | GI50 (ACHN renal): 13.3 µM | TGI (ACHN renal): > 100 µM | GI50 (UACC-62 melanoma): 7.61 µM | TGI (UACC-62 melanoma): > 100 µM | GI50 (OVCAR-8 ovarian): 11.3 µM | TGI (OVCAR-8 ovarian): > 100 µM | GI50 (NCI-H460 lung): 3.54 µM | TGI (NCI-H460 lung): 21.3 µM | GI50 (T-47D breast): 4.48 µM | TGI (T-47D breast): 64.5 µM | GI50 (HL-60(TB) leukemia): 2.15 µM | TGI (HL-60(TB) leukemia): 6.1 µM | GI50 (NCI-H226 lung): 52.1 µM | TGI (NCI-H226 lung): > 100 µM | GI50 (K-562 leukemia): 2.01 µM | TGI (K-562 leukemia): 20.6 µM | GI50 (OVCAR-3 ovarian): 2.65 µM | TGI (OVCAR-3 ovarian): 17 µM | GI50 (RXF 393 renal): 36 µM | TGI (RXF 393 renal): > 100 µM | GI50 (MDA-MB-231 breast): 7.89 µM | TGI (MDA-MB-231 breast): > 100 µM | GI50 (COLO 205 colon): 4.29 µM | TGI (COLO 205 colon): 27.5 µM | GI50 (EKVX NSCLC): 14.8 µM | TGI (EKVX NSCLC): > 100 µM | GI50 (NCI-H23 lung): 11.9 µM | TGI (NCI-H23 lung): > 100 µM | GI50 (MCF7 breast): 2.97 µM | TGI (MCF7 breast): 11.9 µM | GI50 (OVCAR-4 ovarian): 20.5 µM | TGI (OVCAR-4 ovarian): > 100 µM | GI50 (CCRF-CEM leukemia): 6 µM | TGI (CCRF-CEM leukemia): > 100 µM | GI50 (IGROV1 ovarian): 4.26 µM | TGI (IGROV1 ovarian): 28.7 µM | GI50 (SK-MEL-5 melanoma): 3.45 µM | TGI (SK-MEL-5 melanoma): 57.6 µM | GI50 (SNB-19 CNS): 3.64 µM | TGI (SNB-19 CNS): 39.1 µM | GI50 (OVCAR-5 ovarian): 27.8 µM | TGI (OVCAR-5 ovarian): > 100 µM | GI50 (A549 NSCLC): 7.9 µM | TGI (A549 NSCLC): > 100 µM | GI50 (NCI/ADR-RES ovarian): 8.27 µM | TGI (NCI/ADR-RES ovarian): > 100 µM | GI50 (HOP-62 NSCLC): 18.2 µM | TGI (HOP-62 NSCLC): > 100 µM | GI50 (HOP-92 NSCLC): 31.7 µM | TGI (HOP-92 NSCLC): > 100 µM | GI50 (TK-10 renal): 16.1 µM | TGI (TK-10 renal): > 100 µM | GI50 (SF-295 CNS): 2.82 µM | TGI (SF-295 CNS): 23.6 µM | GI50 (786-0 renal): 6.41 µM | TGI (786-0 renal): > 100 µM | GI50 (CAKI-1 renal): 5.13 µM | TGI (CAKI-1 renal): 45.8 µM | GI50 (NCI-H522 lung): 3.02 µM | TGI (NCI-H522 lung): 13.7 µM | GI50 (HCT-15 colon): 4.16 µM | TGI (HCT-15 colon): > 100 µM | GI50 (PC-3 prostate): 7.46 µM | TGI (PC-3 prostate): > 100 µM | GI50 (HCC-2998 colon): 7.37 µM | TGI (HCC-2998 colon): 36 µM | GI50 (SNB-75 CNS): 2.86 µM | TGI (SNB-75 CNS): 10.2 µM | GI50 (UO-31 renal): 9.03 µM | TGI (UO-31 renal): > 100 µM | GI50 (UACC-257 melanoma): > 100 µM | TGI (UACC-257 melanoma): > 100 µM | GI50 (SR leukemia): 1.98 µM | TGI (SR leukemia): 9.91 µM | GI50 (KM12 colon): 2.38 µM | TGI (KM12 colon): > 100 µM | GI50 (LOX IMVI melanoma): 7.51 µM | TGI (LOX IMVI melanoma): > 100 µM | GI50 (MOLT-4 leukemia): 4.71 µM | TGI (MOLT-4 leukemia): 34.7 µM | GI50 (BT-549 breast): 7.57 µM | TGI (BT-549 breast): > 100 µM | GI50 (DU-145 prostate): 21 µM | TGI (DU-145 prostate): > 100 µM | GI50 (HCT-116 colon): 4.04 µM | TGI (HCT-116 colon): > 100 µM | GI50 (SW-620 colon): 3.67 µM | TGI (SW-620 colon): > 100 µM | GI50 (HT29 colon): 3.12 µM | TGI (HT29 colon): 18.4 µM | GI50 (SK-OV-3 ovarian): 7.52 µM | TGI (SK-OV-3 ovarian): 43.2 µM | GI50 (SF-539 CNS): 5.58 µM | TGI (SF-539 CNS): 28 µM | GI50 (HS 578T breast): 5.64 µM | TGI (HS 578T breast): 40.8 µM | GI50 (M14 melanoma): 3.43 µM | TGI (M14 melanoma): 25.1 µM | GI50 (SF-268 CNS): 9.08 µM | TGI (SF-268 CNS): > 100 µM | GI50 (U251 CNS): 5.64 µM | TGI (U251 CNS): > 100 µM
